Test results published in article PMC2263054, “Functional evolution of the vitamin D and pregnane X receptors” (BMC Evolutionary Biology, 2007).

How the values were obtained:
Mouse VDR = target: T1, Mouse VDR (Mus musculus, UniProt P48281); experiment: luciferase reporter transactivation assay in HepG2-NTCP cells, full-length mVDR with CYP3A4-PXRE-Luc; conditions: HepG2-NTCP cells, luciferase reporter; unit not given; also cells saying No effect
T1 sequence (P48281 1-422): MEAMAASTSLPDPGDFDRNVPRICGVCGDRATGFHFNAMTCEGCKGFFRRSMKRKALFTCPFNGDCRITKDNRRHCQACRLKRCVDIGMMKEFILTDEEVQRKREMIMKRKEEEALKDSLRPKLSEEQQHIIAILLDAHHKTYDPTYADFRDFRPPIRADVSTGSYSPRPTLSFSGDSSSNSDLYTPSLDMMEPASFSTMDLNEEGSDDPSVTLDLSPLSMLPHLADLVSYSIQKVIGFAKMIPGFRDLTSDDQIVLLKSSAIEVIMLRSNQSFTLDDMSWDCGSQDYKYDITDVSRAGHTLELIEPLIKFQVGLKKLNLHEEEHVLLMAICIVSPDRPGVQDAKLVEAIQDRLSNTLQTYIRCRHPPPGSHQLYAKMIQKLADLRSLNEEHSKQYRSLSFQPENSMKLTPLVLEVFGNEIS

[1] = system: testosterone 6β-hydroxylation activity (CYP3A-like activity); experiment: testosterone hydroxylation (HPLC) in zebrafish primary hepatocytes
Method: (§1) The cells are cultured at 26°C in ambient atmosphere.
100 μL of sample, calibration standard, or quality material standard were pipetted into separate microcentrifuge tubes and mixed with 100 μL of methanol. Samples were vortexed and centrifuged at 13,000 rpm for 4 min. The supernatant was then injected into the HPLC.
The flow rate was 1.2 mL/min and total run time was 25 min.

[2] = system: ethoxyresorufin O-deethylase (EROD) activity (CYP1A-like activity); experiment: EROD assay in zebrafish primary hepatocytes; conditions: zebrafish primary hepatocytes; DIM at concentrations of 2 μM and greater
Method: as §1

zebrafish PXR = conditions: luciferase reporter in HepG2 cells, normalized to 20 μM androstanol
[3] = system: 6β- and 12α-hydroxylation of testosterone; experiment: testosterone hydroxylation (HPLC) in African clawed frog primary hepatocytes; format: cell-based, Xenopus laevis; conditions: relative to vehicle control
Method: Xenopus laevis primary hepatocytes were cultured by a protocol adapted from a published report. Frogs are sacrificed with MS-222, rinsed with 70% ethanol, and the liver lobes perfused via the heart, initially with 375 mL Barth (88 mM NaCl, 1 mM K2SO4, and 10 mM HEPES-NaOH, pH 7.4) containing 0.82 mM MgCl2 and 0.1 mg/mL heparin, and then with 25 mL Barth containing 2.22 mM Ca(NO3)2, 2.74 mM CaCl2, and 200 U/mL type I collagenase (Worthington Chemicals, Lakewood, NJ). Livers are minced to fine pieces in 12.5 mL Barth-collagenase solution and then incubated for 10 min at room temperature, periodically disaggregating the liver pieces with a Pasteur pipette. The liver cells are then placed on a shaking incubator for 5 min at room temperature, followed by another 10 min of periodic pipetting to complete disaggregation. Cells are then filtered through a 130 μm Nitex nylon mesh (Fisher Scientific), following by spinning at 500 g for 5 min at 4°C. The supernatant is then aspirated and diluted to 50 mL with Barth plus MgCl2 and then allowed to settle while cooled in ice for 30 min. The supernatant is removed, and the cellular pellet is resuspended and subjected to one more round of nylon mesh filtration, dilution in Barth plus MgCl2, and settling while cooled in ice. The supernatant is removed and the remaining cells are washed once with Barth plus MgCl2 and then centrifuged at 500 g for 5 min at 4°C. The cells are then resuspended in 0.6 × Coon's Modified Ham's F-12 medium (Invitrogen) supplemented with 0.1 × Barth (88 mM NaCl, 1 mM K2SO4, 10 mM HEPES), 200 U/mL penicillin G, 100 μg/mL streptomycin sulfate, 2 mM glutamine, 0.2% glucose, and 10 μg/mL bovine insulin (Calbiochem), with the final pH adjusted to 7.5. […] Cells are cultured at 20°C in ambient atmosphere.
Testosterone metabolites were identified and quantitated by HPLC. […] The supernatant was then injected into the HPLC.

PXR = experiment: zebrafish in vivo liver transcription, semi-quantitative RT-PCR: PXR
Method: Adult zebrafish were purchased from a commercial fish supplier and acclimatized for at least two-weeks in 20 L tanks with flow-through freshwater at 22°C. A single dose of 15 mg/kg of 5α-cyprinol, 5β-cyprinol 27-sulfate, 5α-scymnol or 5β-scymnol-27 sulfate, dissolved in saline, was injected intraperitoneally. A control group was injected with saline. After 48 hr, the animals were decapitated and livers of three fish (n = 5 each group) were removed, pooled and weighed, totalizing 15 fish per group. Fish were not fed throughout the experimental period. […].
To study the transcription of CYP3C1, ABCB5, PXR, GAPDH and β-actin genes in zebrafish, initial fragments of these genes were identified (Genbank: AW202769, Genbank: BQ284593, Genbank: AAM22215, Genbank: BC083506, Genbank: AF057040, respectively). The PCR primers for CYP3C1 were designed using MacVector Software and primers for MDR1 were designed using Primer 3 Software (Whitehead Institute for Biomedical Research; [75]). Primer pairs for amplifying CYP3C1 fragment were 5'-[…]-3' (sense) and 5'-[…]-3' (antisense) and for amplifying ABCB5 were 5'-[…]-3' (sense) and 5'-[…]-3' (antisense). The PCR primers for PXR were 5'-[…]-3' (sense) and 5'-[…]-3' (antisense), for amplifying GAPDH were 5'-[…]-3' (sense) and 5' […] 3' (antisense) and for β-actin were 5'-[…]-3' (sense) and 5'-[…]-3' (antisense). RNA was isolated using Trizol (Invitrogen) according to manufacturer's instructions. Purity and concentration of RNA of each sample were verified at 260 nm. The RNA integrity was checked by non-denaturing gel electrophoresis using 1 μg of total RNA in each sample.
Two micrograms of total RNA were reversed transcribed using Ominiscript RT Kit (Qiagen, Valencia, CA, USA). cDNA concentration was checked at 260 nm, and the amount adjusted to 1 μg to perform semi-quantitative RT-PCR. The expected size of the PXR, Cyp3C1, abcb5, GAPDH and β-actin fragments were 577, 477, 218, 234 and 550 bp, respectively. Biotools DNA polymerase (Biotools B&M Labs, S.A., Madrid, Spain) kit was used for the PCR reaction using a thermocycler Personal Mastercycler (Eppendörf) with the following PCR program: 5 cycles of 94°C for 5 s, 72°C for 35 s; 5 cycles of 94°C for 5 s, 70°C for 10 s, 72°C for 35 s; and 23, 24, 35, 15 and 24 cycles (PXR, Cyp3C1, abcb5, GAPDH and β-actin, respectively) of 94°C for 5 s, 61, 54, 48, 49 and 61°C for 10 s (PXR, Cyp3C1, abcb5, GAPDH and β-actin, respectively), and 72°C for 35 s. The PXR, CYP3C1, ABCB5 and GAPDH transcript levels were quantified using Gel-Quant™ (Multiplexed Biotechologies) and β-actin was used to normalize the data. The Shapiro-Wilk W test was used to evaluate normality. When data were parametric the analysis was performed using Student t test; otherwise Mann Whitney U test was applied. […]

Structure (SMILES) | Mouse VDR EC50 ± SD (Mouse VDR) | increase in 6β-hydroxylation activity compared to vehicle-treated control [1] | effect on EROD activity [2] | activation of recombinant zebrafish PXR (zebrafish PXR) | effect on 6β- and 12α-hydroxylation of testosterone [3] | liver transcription of PXR (PXR; zebrafish, 15 mg/kg intraperitoneally, single dose, 48 hr) | liver transcription of PXR (PXR; ip, 15 mg/kg, 48 h)
C[C@H](CCCC(CO)COS(=O)(=O)O)[C@H]1CC[C@H]2[C@@H]3[C@H](O)C[C@H]4C[C@H](O)CC[C@]4(C)[C@H]3C[C@H](O)[C@]12C (stereo partly drawn) [5α-Cyprinol 27-sulfate] | No effect | 15–20% | found not to affect EROD activity | all activate recombinant zebrafish PXR | neither activity was substantially increased relative to vehicle control | 1.50 ± 0.67 arbitrary units normalized to β-actin | 
C[C@H](CCCC(CO)CO)[C@H]1CC[C@H]2[C@@H]3[C@H](O)C[C@H]4C[C@H](O)CC[C@]4(C)[C@H]3C[C@H](O)[C@]12C [5α-Cyprinol, 5α-cholestan-3α,7α,12α,26,27-pentol] | No effect |  |  |  | neither activity was substantially increased relative to vehicle control |  | 0.58 ± 0.33 arbitrary units normalized to β-actin
